Reference: ChEMBL document CHEMBL1156260, “Through the "gatekeeper door": exploiting the active kinase conformation” (J Med Chem, 2010)

Target: Serine/threonine-protein kinase PLK1 (Homo sapiens, UniProt P53350)
Sequence (P53350 whole entry): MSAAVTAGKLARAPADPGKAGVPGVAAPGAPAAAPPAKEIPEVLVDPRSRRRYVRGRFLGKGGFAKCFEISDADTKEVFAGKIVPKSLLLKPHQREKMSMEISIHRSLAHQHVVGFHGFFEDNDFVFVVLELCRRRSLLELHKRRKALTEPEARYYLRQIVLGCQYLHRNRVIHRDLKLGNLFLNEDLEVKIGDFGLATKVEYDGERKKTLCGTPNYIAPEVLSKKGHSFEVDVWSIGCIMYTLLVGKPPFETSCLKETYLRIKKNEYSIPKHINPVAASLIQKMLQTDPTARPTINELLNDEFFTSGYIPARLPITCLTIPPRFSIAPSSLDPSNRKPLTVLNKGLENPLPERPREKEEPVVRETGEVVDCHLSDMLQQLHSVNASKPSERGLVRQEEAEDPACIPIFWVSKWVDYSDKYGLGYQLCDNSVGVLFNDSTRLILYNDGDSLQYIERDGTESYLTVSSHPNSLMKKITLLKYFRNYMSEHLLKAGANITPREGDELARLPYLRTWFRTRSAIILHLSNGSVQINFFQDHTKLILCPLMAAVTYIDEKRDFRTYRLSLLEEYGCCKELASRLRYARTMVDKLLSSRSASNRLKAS

IC50: 720 nM
Structure (SMILES): Cc1cc(NC(=O)Nc2ncc(CCNc3cc(Nc4nnc[nH]4)ncn3)s2)c(C(F)(F)F)o1
